Reference: paper PMC4145624, “Simultaneous purification of nitrile hydratase and amidase of Alcaligenes sp. MTCC 10674” (3 Biotech, 2013)

Tests used:
[1] = system: T1, Nitrile hydratase (Nhase); assay: acrylamide formation at […] nm; format: biochemical, Alcaligenes sp. MTCC 10674; details: sodium phosphate buffer 0.125 M, pH 8.0, 15 °C (standard assay)
T1 construct: gene nthA; native, purified from Alcaligenes sp; MTCC 10674 cells (DEAE-Sepharose); heterodimer of 24 and 21 kDa, 47 kDa by native PAGE

Amidase = system: T2, Amidase; assay: ammonia release assay; format: biochemical, Alcaligenes sp. MTCC 10674; details: sodium phosphate buffer 0.075 M, pH 8.0, 45 °C (standard assay); substrate named, not in the Km sentence
T2 construct: native, purified from Alcaligenes sp; MTCC 10674 cells (DEAE-Sepharose, Sephacryl S-100); dimer of 52 and 49 kDa, 114 kDa by native PAGE

Row | Structure (SMILES) | Km [1] [mM] | Km (Amidase) [mM]
1 | C=CC#N [acrylonitrile] | 40 | 
2 | CCC(N)=O [propionamide] |  | 45.5
